Test results reported in patent US7678913B2, “Ureas as factor Xa inhibitors” (Portola Pharmaceuticals, Inc., priority 2004, dated 2010).

Biological target: T1, human plasma protein factor Xa (Homo sapiens, UniProt P00742)
T1 construct: measure proteolytic activity of the enzyme (factor Xa); purchased Haematologic Technologies (Essex Junction, Vt.); host or cells: human plasma
Assay: Factor Xa IC50 determination (cleavage of chromogenic substrate S-2765)
Type: biochemical
Details: fXa 1 nM, S-2765 100 μM, Tris buffered saline pH 7.4, room temperature
How it was run: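 Human plasma factor Xa (1 nM) preincubated 5 min at room temperature with inhibitor (0.01 nM–10 μM final) in Tris-buffered saline pH 7.4 with CaCl2, BSA and 5% DMSO. S-2765 added at 100 μM; pNA release at 405 nm over 2 min; initial velocities fitted to four-parameter equation for IC50, duplicates.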

T1 sequence (P00742 235-488 limits assumed): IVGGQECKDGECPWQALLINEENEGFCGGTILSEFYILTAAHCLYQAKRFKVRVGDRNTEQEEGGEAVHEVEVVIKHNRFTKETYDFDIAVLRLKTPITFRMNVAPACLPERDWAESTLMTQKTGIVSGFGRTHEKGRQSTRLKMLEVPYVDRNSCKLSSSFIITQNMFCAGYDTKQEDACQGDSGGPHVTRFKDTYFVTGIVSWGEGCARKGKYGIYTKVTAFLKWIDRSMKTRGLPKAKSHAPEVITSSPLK
T1 sequence (P00742 41-179 partner limits assumed): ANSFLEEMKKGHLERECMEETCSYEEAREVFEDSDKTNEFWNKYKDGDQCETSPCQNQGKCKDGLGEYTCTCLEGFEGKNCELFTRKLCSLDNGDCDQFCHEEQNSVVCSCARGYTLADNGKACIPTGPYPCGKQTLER

IC50	Compound
≤ 100 nM	Cc1ccccc1C(NC(=O)Nc1ccc(Cl)cc1)C(=O)Nc1ccc(C(=O)N2CCCC2)cc1 (stereo not drawn) [Example 94, N-[4-(pyrrolidin-1-ylcarbonyl)phenyl]-2-(2-methylphenyl)-2-(4-chlorophenylaminocarbonylamino)-acetamide]
≤ 100 nM	Cc1ccccc1C(NC(=O)Nc1ccc(Cl)cc1)C(=O)Nc1ccc(N2CCOCC2=O)cc1 (stereo not drawn) [Example 95, N-[4-(3-oxo-morpholin-4-yl)phenyl]-2-(2-methylphenyl)-2-(4-chlorophenylaminocarbonylamino)-acetamide]
≤ 100 nM	Cc1ccccc1C(NC(=O)Nc1ccc(Cl)cc1)C(=O)Nc1ccc(N(C)c2ccncc2)cc1 (stereo not drawn) [Example 96, N-[4-(N-methyl-N-pyridin-4-yl-amino)phenyl]-2-(2-methylphenyl)-2-(4-chlorophenylaminocarbonylamino)-acetamide]
≤ 100 nM	Cc1ccccc1C(NC(=O)Nc1ccc(Cl)cc1)C(=O)Nc1ccc(C(=O)N2CCSC2)cc1 (stereo not drawn) [Example 97, N-[4-(thiazolidin-3-ylcarbonyl)phenyl]-2-(2-methylphenyl)-2-(4-chlorophenylaminocarbonylamino)-acetamide]
≤ 100 nM	Cc1ccccc1C(NC(=O)Nc1ccc(Cl)cc1)C(=O)Nc1ccc(C(=O)N2CCOC2)cc1 (stereo not drawn) [Example 98, N-[4-(oxazolidin-3-ylcarbonyl)phenyl]-2-(2-methylphenyl)-2-(4-chlorophenylaminocarbonylamino)-acetamide]
≤ 100 nM	O=C(Nc1ccc(Cl)cc1)NC(C(=O)Nc1ccc(-c2cccc[n+]2[O-])cc1)c1ccccc1Cl (stereo not drawn) [Example 99, N-[4-(N-oxo-pyridin-2-yl)phenyl]-2-(2-chlorophenyl)-2-(4-chlorophenylaminocarbonylamino)-acetamide]
≤ 100 nM	CN(C)C(=N)c1ccc(NC(=O)C(NC(=O)Nc2ccc(Cl)cc2)c2ccccc2Cl)cc1 (stereo not drawn) [Example 100, N-[4-(dimethylaminoimino)phenyl]-2-(2-chlorophenyl)-2-(4-chlorophenylaminocarbonylamino)-acetamide]
≤ 100 nM	N=C(c1ccc(NC(=O)C(NC(=O)Nc2ccc(Cl)cc2)c2ccccc2Cl)cc1)N1CCCC1 (stereo not drawn) [Example 101]
≤ 100 nM	CN1CCCN(c2ccc(NC(=O)C(NC(=O)Nc3ccc(Cl)cc3)c3ccccc3Cl)cc2)CC1 (stereo not drawn) [Example 102, N-[4-(4-methyl-homopiperazinyl)phenyl]-2-(2-chlorophenyl)-2-(4-chlorophenylaminocarbonylamino)-acetamide]
≥ 500 nM	CC(C)N1CCC(NC(=O)C(NC(=O)Nc2ccc(Cl)cc2)c2ccccc2Cl)CC1 (stereo not drawn) [Example 103, N-(1-isopropylpiperidin-4-yl)-2-(2-chlorophenyl)-2-(4-chlorophenylamino-carbonylamino)-acetamide]
≤ 100 nM	CN1CCC(N2CCN(C(=O)C(NC(=O)Nc3ccc(Cl)cc3)c3ccccc3Cl)CC2)CC1 (stereo not drawn) [Example 104, N-[4-(1-methylpiperidin-4-yl)piperazin-1-yl]-2-(2-chlorophenyl)-2-(4-chlorophenylaminocarbonylamino)-acetamide]
≤ 100 nM	O=C(Nc1ccc(Cl)cc1)NC(C(=O)NCC1CCN(c2ccncc2)CC1)c1ccccc1Cl (stereo not drawn) [Example 105, N-[1-(pyridin-4-yl)piperidin-4-yl]methyl-2-(2-chlorophenyl)-2-(4-chlorophenylaminocarbonylamino)-acetamide]
≤ 100 nM	COc1ccccc1C(NC(=O)Nc1ccc(Cl)cc1)C(=O)Nc1ccc(C2=NCCN2C)cc1 (stereo not drawn) [Example 106, N-[4-(1-methyl-4,5-dihydro-1H-imidazol-2-yl)phenyl]-2-(2-methoxyphenyl)-2-(4-chlorophenylaminocarbonylamino)-acetamide]
≤ 100 nM	COc1ccccc1C(NC(=O)Nc1ccc(Cl)cc1)C(=O)Nc1ccc(-c2cccc[n+]2[O-])cc1 (stereo not drawn) [Example 107, N-[4-(N-oxo-pyridin-2-yl)phenyl]-2-(2-methoxyphenyl)-2-(4-chlorophenylaminocarbonylamino)-acetamide]
≤ 100 nM	COc1ccccc1C(NC(=O)Nc1ccc(Cl)cc1)C(=O)NCC1CCN(c2ccncc2)CC1 (stereo not drawn) [Example 108, N-[1-(pyridin-4-yl)piperidin-4-yl]methyl-2-(2-methoxyphenyl)-2-(4-chlorophenylaminocarbonylamino)-acetamide]
≤ 100 nM	COc1ccccc1C(NC(=O)Nc1ccc(Cl)cc1)C(=O)N1CCN(C2CCN(C)CC2)CC1 (stereo not drawn) [Example 109, N-[4-(1-methylpiperidin-4-yl)piperazin-1-yl]-2-(2-methoxyphenyl)-2-(4-chlorophenylaminocarbonylamino)-acetamide]
≥ 500 nM	COc1ccccc1C(NC(=O)Nc1ccc(Cl)cc1)C(=O)NC1CCN(C(C)C)CC1 (stereo not drawn) [Example 110, N-(1-isopropylpiperidin-4-yl)-2-(2-methoxyphenyl)-2-(4-chlorophenylamino-carbonylamino)-acetamide]
≤ 100 nM	COc1ccccc1C(NC(=O)Nc1ccc(Cl)cc1)C(=O)Nc1ccc(N2CCCN(C)CC2)cc1 (stereo not drawn) [Example 111, N-[4-(4-methyl-homopiperazinyl)phenyl]-2-(2-methoxyphenyl)-2-(4-chlorophenylaminocarbonylamino)-acetamide]
≤ 100 nM	COc1ccccc1C(NC(=O)Nc1ccc(Cl)cc1)C(=O)Nc1ccc(C(=N)N(C)C)cc1 (stereo not drawn) [Example 112, N-[4-(dimethylaminoimino)phenyl]-2-(2-methoxyphenyl)-2-(4-chlorophenylaminocarbonylamino)-acetamide]
≤ 100 nM	COc1ccccc1C(NC(=O)Nc1ccc(Cl)cc1)C(=O)Nc1ccc(C(=N)N2CCCC2)cc1 (stereo not drawn) [Example 113]
≤ 100 nM	CN1CCN=C1c1ccc(NC(=O)C(NC(=O)Nc2ccc(Cl)cc2)c2ccccc2I)cc1 (stereo not drawn) [Example 114, N-[4-(1-methyl-4,5-dihydro-1H-imidazol-2-yl)phenyl]-2-(2-iodophenyl)-2-(4-chlorophenylaminocarbonylamino)-acetamide]
≤ 100 nM	O=C(Nc1ccc(Cl)cc1)NC(C(=O)Nc1ccc(-c2cccc[n+]2[O-])cc1)c1ccccc1I (stereo not drawn) [Example 115, N-[4-(N-oxo-pyridin-2-yl)phenyl]-2-(2-iodophenyl)-2-(4-chlorophenylamino-carbonylamino)-acetamide]
≤ 100 nM	CN(C)C(=N)c1ccc(NC(=O)C(NC(=O)Nc2ccc(Cl)cc2)c2ccccc2I)cc1 (stereo not drawn) [Example 116, N-[4-(dimethylaminoimino)phenyl]-2-(2-iodophenyl)-2-(4-chlorophenylaminocarbonylamino)-acetamide]
≤ 100 nM	N=C(c1ccc(NC(=O)C(NC(=O)Nc2ccc(Cl)cc2)c2ccccc2I)cc1)N1CCCC1 (stereo not drawn) [Example 117]
≤ 100 nM	CN1CCC(N2CCN(C(=O)C(NC(=O)Nc3ccc(Cl)cc3)c3ccccc3I)CC2)CC1 (stereo not drawn) [Example 118]
≤ 100 nM	CN1CCN=C1c1ccc(NC(=O)C(NC(=O)Nc2ccc(Cl)cc2)c2ccc(Br)cc2)cc1 (stereo not drawn) [Example 119, N-[4-(1-methyl-4,5-dihydro-1H-imidazol-2-yl)phenyl]-2-(4-bromophenyl)-2-(4-chlorophenylaminocarbonylamino)-acetamide]
≤ 100 nM	CN1CCN=C1c1ccc(NC(=O)C(NC(=O)Nc2ccc(Cl)cc2)c2ccccc2OC(F)(F)F)cc1 (stereo not drawn) [Example 120, N-[4-(1-methyl-4,5-dihydro-1H-imidazol-2-yl)phenyl]-2-(2-trifluoromethoxyphenyl)-2-(4-chlorophenylaminocarbonylamino)-acetamide]
